Our source for the IC50 and inhibition values is ChEMBL document CHEMBL1132074, “Potent and selective bicyclic lactam inhibitors of thrombin: Part 3: P1' modifications” (Bioorg Med Chem Lett, 1999).

The target of test [1] is T1, Serine protease 1 (Homo sapiens, UniProt P07477). Kind of test: In vitro inhibitory activity against human trypsin.
For test [2], the target named is Prothrombin (Homo sapiens, UniProt P00734). Put plainly: Inhibition of human Thrombin.
The target of test [3] is T1, Serine protease 1. Put plainly: In vitro inhibitory activity against human trypsin at 100 uM.

T1 sequence (P07477 whole entry): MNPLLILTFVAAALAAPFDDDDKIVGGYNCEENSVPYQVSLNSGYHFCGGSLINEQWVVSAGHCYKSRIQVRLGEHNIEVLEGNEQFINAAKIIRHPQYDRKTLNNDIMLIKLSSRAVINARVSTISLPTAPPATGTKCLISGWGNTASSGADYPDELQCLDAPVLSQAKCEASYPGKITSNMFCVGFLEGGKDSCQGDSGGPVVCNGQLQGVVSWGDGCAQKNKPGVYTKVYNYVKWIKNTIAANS

`N=C(N)NCCC[C@H](NC(=O)[C@@H]1CC[C@H]2CN(C(=O)CCc3ccccc3)CC(=O)N21)C(=O)c1nccs1`: the IC50 in test [1] is under 1 nM.
On to `N=C(N)NCCC[C@H](NC(=O)[C@@H]1CC[C@H]2CN(C(=O)CCc3ccccc3)CC(=O)N21)C(=O)c1ccccn1`, for which the IC50 in test [2] was determined as 340 nM; in test [1], 160 nM.
In the same order, the values of `Cn1c(C(=O)[C@H](CCCNC(=N)N)NC(=O)[C@@H]2CC[C@H]3CN(C(=O)CCc4ccccc4)CC(=O)N32)nc2ccccc21` are 51 nM and 3360 nM.
As to `NCCCC[C@H](NC(=O)[C@@H]1CC[C@H]2CN(C(=O)CCc3ccccc3)CC(=O)N21)C(=O)c1nccs1`, the IC50 in test [2] worked out at 77 nM; in test [1], 14 nM.
In the same order, the values of `Cc1csc(C(=O)C(CCCNC(=N)N)NC(=O)[C@@H]2CC[C@H]3CN(C(=O)CCc4ccccc4)CC(=O)N32)n1` (some centres not stated) are 44 nM and 24 nM.
In turn, `Cn1c(C(=O)[C@H](CC2CCCN(C(=N)N)C2)NC(=O)[C@@H]2CC[C@H]3CN(C(=O)CCc4ccccc4)CC(=O)N32)nc2ccccc21` (some centres not stated) yielded an IC50 in test [2] of 750 nM. Moreover, the inhibition in test [3] was 40%.
Consider `Cn1ccnc1C(=O)[C@H](CCCNC(=N)N)NC(=O)[C@@H]1CC[C@H]2CN(C(=O)CCc3ccccc3)CC(=O)N21`, for which the IC50 in test [2] stood at 2370 nM; in test [1] it was 27400 nM.
The matching figures for `Cc1nc(C(=O)[C@H](CCCN=C(N)N)NC(=O)[C@@H]2CC[C@H]3CN(C(=O)CCc4ccccc4)CC(=O)N32)sc1CCO`: 15 nM and 12 nM.
In the same order, the values of `N=C(N)N1CCCC(C[C@H](NC(=O)[C@@H]2CC[C@H]3CN(C(=O)CCc4ccccc4)CC(=O)N32)C(=O)c2nc3ccccc3s2)C1` (some centres not stated) are under 1 nM and 590 nM.
The matching figures for `Cn1c(C(=O)[C@H](Cc2cccc(C(=N)N)c2)NC(=O)[C@@H]2CC[C@H]3CN(C(=O)CCc4ccccc4)CC(=O)N32)nc2ccccc21`: 450 nM and 18700 nM.
Regarding `N=C(N)NCCC[C@H](NC(=O)[C@@H]1CC[C@H]2CN(C(=O)CCc3ccccc3)CC(=O)N21)C(=O)c1nc2c(s1)CCC2`, the IC50 worked out at 18 nM in test [2] and 2 nM in test [1].
As for `N=C(N)c1cccc(CC(NC(=O)[C@@H]2CC[C@H]3CN(C(=O)CCc4ccccc4)CC(=O)N32)C(=O)c2nc3ccccc3s2)c1` (some centres not stated), the IC50 in test [2] amounted to 57 nM; in test [1], 970 nM.
On to `Cn1c(C(=O)[C@H](CCCCN)NC(=O)[C@@H]2CC[C@H]3CN(C(=O)CCc4ccccc4)CC(=O)N32)nc2ccccc21`, for which the IC50 in test [2] was 2050 nM; in test [1] it was 8490 nM.
As for `N=C(N)NCCC[C@H](NC(=O)[C@@H]1CC[C@H]2CN(C(=O)CCc3ccccc3)CC(=O)N21)C(=O)c1nc2ccccc2s1`, the IC50 in test [2] and in test [1] was under 1 nM each time.
